Experiment: Interim pharmacokinetics, multiple-dose study (Example 5)
Format: in vivo, human
Protocol: Interim Pharmacokinetic results of the study were derived from plasma concentrations of 9-cis-retinyl acetate and its metabolites, measured throughout the study period at prescribed time points. The scope of this interim PK analysis encompasses samples from Cohort 1 including the placebo (n=2), 40 mg/m^2 (n=6) and 60 mg/m^2 (n=2) dose groups obtained in treatment cycles 1, 2 and 3.
The plasma samples were analyzed by liquid chromatography-mass spectrometry-mass spectrometry (LC/MS/MS) for parent drug and potential metabolites. Noncompartmental (NCA) pharmacokinetic (PK) parameters such as AUC were obtained using the WinNonlin software with observational determination of Cmax, tmax, and duration of concentrations above baseline (TD).

accumulation of 9-cis-retinol and retinyl ester metabolites on multiple-dosing (40 mg/m^2, repeated seven day cycles): slight to modest accumulation
plasma concentrations (Cohort 1, 40 and 60 mg/m^2, cycles 1-3): low and transient
Compound: CC(=O)OC/C=C(C)/C=C/C=C(C)\C=C\C1=C(C)CCCC1(C)C [9-cis-Retinyl acetate, (2E, 4E, 6Z, 8E)-3,7-dimethyl-9-(2,6,6-trimethylcyclohex-1-en-1-yl) nona-2,4,6,8-tetraen-1-yl acetate]
accumulation of metabolites from cycle to cycle (40 mg/m^2, Cycles 1, 2 and 3): no accumulation being observed from cycle to cycle

— patent publication US10828267B2, “Therapeutic regimens and methods for improving visual function in visual disorders associated with an endogenous retinoid deficiency” (RETINAGENIX THERAPEUTICS, INC., priority 2012, dated 2020)
